The results in this text go back to patent publication US20240132521A1, “COMPOUNDS AND METHODS FOR MODULATING HER2” (Iambic Therapeutics, Inc., priority 2022, published 2024).

Structures are written as SMILES.

What all share (type): cell-based
Assay [1] deals with BaF3_HER2YVMA cells (Homo sapiens, UniProt P04626, DUP772-775, cells depend on it). Put plainly: Cell growth inhibition assay (CellTiterGlo), BaF3_HER2YVMA. As to conditions: 3-day treatment, CellTiterGlo, read-out: Cell growth inhibition activity, HER2 - YVMA. (In general: ATP-based viability assays read luminescence as a measure of living cells.)
Assay [2] has as its target BaF3_HER2WT cells (Homo sapiens, UniProt P04626). Description: Cell growth inhibition assay (CellTiterGlo), BaF3_HER2WT. Conditions: 3-day treatment, CellTiterGlo, read-out: Cell growth inhibition activity, HER2 WT.
Assay [3] has as its target BaF3_EGFRWT cells (Homo sapiens, UniProt P00533). Description: Cell growth inhibition assay (CellTiterGlo), BaF3_EGFRWT. Conditions: 3-day treatment, CellTiterGlo, read-out: Cell growth inhibition activity, EGFR WT.

Chain of BaF3_HER2YVMA cells (P04626 with tags, fused parts or gaps DUP772-775): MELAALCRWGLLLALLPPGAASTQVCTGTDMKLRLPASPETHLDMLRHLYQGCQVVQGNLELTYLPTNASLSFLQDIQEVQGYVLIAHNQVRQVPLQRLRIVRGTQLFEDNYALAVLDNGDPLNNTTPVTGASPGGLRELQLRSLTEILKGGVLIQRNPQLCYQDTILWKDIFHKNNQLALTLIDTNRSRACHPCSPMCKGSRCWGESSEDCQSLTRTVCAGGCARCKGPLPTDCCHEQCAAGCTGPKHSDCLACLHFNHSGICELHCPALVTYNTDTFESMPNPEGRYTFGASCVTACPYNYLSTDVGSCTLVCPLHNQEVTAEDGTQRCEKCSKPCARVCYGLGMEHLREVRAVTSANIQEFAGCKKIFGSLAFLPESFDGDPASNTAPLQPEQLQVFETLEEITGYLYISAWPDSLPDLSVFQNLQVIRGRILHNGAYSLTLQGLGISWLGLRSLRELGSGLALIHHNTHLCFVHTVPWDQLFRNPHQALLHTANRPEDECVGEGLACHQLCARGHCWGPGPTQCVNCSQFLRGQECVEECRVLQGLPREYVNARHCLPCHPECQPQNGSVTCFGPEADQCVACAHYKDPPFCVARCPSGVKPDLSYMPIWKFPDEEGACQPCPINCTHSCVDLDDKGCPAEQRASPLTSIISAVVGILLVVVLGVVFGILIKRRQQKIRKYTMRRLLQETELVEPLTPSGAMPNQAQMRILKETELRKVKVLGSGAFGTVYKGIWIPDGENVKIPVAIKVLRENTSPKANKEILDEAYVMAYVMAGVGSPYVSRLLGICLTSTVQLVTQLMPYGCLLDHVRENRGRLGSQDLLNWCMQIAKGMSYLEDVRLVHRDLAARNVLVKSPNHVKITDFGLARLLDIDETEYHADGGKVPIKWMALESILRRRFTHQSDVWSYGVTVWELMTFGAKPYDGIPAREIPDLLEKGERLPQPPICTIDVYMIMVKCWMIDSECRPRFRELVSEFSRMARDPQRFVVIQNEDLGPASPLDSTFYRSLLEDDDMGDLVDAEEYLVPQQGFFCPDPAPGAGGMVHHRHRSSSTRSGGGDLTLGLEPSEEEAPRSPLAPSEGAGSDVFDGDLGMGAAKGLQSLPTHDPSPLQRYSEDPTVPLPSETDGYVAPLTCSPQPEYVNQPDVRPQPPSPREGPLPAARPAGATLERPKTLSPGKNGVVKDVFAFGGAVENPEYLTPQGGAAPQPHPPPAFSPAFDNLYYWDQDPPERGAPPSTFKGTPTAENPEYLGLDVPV
Chain of BaF3_EGFRWT cells (P00533 whole entry, change not shown): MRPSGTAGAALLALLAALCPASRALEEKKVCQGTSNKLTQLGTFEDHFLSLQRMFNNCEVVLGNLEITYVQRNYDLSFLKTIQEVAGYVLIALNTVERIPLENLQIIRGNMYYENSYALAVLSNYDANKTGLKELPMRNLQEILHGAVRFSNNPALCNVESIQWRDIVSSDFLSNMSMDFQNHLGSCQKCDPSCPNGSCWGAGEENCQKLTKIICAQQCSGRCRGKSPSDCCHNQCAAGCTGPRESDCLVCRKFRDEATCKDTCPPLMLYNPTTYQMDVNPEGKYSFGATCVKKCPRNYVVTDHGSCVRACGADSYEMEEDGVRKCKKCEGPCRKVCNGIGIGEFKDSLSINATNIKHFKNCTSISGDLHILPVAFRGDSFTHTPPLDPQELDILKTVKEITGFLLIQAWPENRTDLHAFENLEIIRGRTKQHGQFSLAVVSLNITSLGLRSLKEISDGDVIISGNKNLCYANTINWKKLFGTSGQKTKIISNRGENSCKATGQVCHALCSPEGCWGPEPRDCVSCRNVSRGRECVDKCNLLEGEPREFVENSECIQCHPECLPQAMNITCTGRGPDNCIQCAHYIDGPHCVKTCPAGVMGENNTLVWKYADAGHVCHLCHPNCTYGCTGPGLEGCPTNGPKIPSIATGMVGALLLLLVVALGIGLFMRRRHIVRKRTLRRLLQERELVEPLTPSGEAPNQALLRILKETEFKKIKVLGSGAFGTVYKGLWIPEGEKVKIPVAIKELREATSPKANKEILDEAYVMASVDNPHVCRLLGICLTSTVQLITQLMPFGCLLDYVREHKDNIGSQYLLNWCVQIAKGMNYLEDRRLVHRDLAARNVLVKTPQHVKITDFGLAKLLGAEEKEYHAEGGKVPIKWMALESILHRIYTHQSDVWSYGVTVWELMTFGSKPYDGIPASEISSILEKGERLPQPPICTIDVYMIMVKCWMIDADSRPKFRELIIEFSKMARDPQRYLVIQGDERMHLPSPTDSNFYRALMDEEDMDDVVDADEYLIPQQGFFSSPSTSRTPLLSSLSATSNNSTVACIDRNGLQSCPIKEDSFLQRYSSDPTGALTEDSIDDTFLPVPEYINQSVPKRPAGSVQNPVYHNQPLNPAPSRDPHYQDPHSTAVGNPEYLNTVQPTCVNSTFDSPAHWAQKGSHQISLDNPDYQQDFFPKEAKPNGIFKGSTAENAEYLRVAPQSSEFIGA
Chain of BaF3_HER2WT cells (P04626 whole entry, change not shown): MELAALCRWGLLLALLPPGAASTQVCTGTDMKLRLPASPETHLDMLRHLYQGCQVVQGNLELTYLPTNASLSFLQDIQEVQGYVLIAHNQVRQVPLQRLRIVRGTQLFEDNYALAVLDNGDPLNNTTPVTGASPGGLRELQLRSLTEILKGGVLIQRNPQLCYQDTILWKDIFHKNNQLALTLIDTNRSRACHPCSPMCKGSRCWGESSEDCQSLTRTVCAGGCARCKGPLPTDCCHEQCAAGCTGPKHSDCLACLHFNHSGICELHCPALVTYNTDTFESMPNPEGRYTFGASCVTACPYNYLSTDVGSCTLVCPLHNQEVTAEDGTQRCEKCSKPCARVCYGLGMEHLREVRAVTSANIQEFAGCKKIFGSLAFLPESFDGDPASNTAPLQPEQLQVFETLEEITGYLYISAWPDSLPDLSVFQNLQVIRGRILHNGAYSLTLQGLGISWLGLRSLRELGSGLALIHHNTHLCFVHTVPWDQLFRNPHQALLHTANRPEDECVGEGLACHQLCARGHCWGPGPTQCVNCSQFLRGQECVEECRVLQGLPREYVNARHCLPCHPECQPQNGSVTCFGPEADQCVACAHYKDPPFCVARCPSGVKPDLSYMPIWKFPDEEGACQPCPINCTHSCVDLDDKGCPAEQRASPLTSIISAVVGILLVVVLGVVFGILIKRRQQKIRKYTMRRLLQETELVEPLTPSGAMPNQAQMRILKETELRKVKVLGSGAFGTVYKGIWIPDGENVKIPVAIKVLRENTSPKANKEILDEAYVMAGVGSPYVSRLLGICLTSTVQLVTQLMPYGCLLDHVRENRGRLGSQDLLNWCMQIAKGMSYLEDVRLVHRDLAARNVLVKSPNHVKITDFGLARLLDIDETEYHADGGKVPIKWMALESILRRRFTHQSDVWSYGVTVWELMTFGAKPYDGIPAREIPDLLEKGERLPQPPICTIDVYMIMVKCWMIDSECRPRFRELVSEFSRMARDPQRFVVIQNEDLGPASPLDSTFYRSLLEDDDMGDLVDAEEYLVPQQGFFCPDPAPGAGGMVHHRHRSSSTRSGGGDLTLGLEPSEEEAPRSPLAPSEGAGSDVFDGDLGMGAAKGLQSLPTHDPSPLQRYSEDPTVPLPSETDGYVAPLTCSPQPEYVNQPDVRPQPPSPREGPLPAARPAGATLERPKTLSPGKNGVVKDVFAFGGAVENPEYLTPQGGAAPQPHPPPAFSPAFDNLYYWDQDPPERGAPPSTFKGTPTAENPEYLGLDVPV

Consider `C=CC(=O)N1CCN(c2ccn3ncnc(Nc4ccc(Oc5ccc6c(c5)ncn6C)c(C)c4)c23)CC1` [Example 121, 1-(4-(4-((3-methyl-4-((1-methyl-1H-benzo[d]imidazol-5-yl)oxy)phenyl)amino)pyrrolo[2,1-f][1,2,4]triazin-5-yl)piperazin-1-yl)prop-2-en-1-one], for which the GI50 in assay [1] is below 200 nM; in assay [2], below 200 nM; in assay [3] it was 500 to 1500 nM.
Regarding `Cc1cc(Nc2ncnn3ccc(C4CCN(C(=O)/C=C/CN5CCC6(COC6)C5)CC4)c23)ccc1Oc1ccc2c(c1)ncn2C` [Example 129, (E)-1-(4-(4-((3-methyl-4-((1-methyl-1H-benzo[d]imidazol-5-yl)-oxy)phenyl)amino)-pyrrolo[2,1-f][1,2,4]triazin-5-yl)piperidin-1-yl)-4-(2-oxa-6-azaspiro[3.4]octan-6-yl)but-2-en-1-one], the GI50 is below 200 nM in assay [1], below 200 nM in assay [2] and 1500 to 5000 nM in assay [3].
`Cc1cc(Nc2ncnn3ccc(C4CCN(C(=O)/C=C/CN(C)C)CC4)c23)ccc1Oc1ccc2c(c1)ncn2C` [Example 133, (E)-4-(dimethylamino)-1-(4-(4-((3-methyl-4-((1-methyl-1H-benzo[d]234midazole-5-yl)oxy)phenyl)amino)pyrrolo[2,1-f][1,2,4]triazin-5-yl)piperidin-1-yl)but-2-en-1-one]: the GI50 in assay [1] is below 200 nM; in assay [2] it was below 200 nM; in assay [3], 1500 to 5000 nM.
With `Cc1cc(Nc2ncnn3ccc(C4CN(C(=O)/C=C/CN(C)C)C4)c23)ccc1Oc1ccn2cnnc2c1` [Example 134, (E)-1-(3-(4-((4-([1,2,4]triazolo[4,3-a]pyridin-7-yloxy)-3-methylphenyl)amino)pyrrolo[2,1-f][1,2,4]triazin-5-yl)azetidin-1-yl)-4-(dimethylamino)but-2-en-1-one], the GI50 in assay [1] lay within 1500 to 5000 nM; in assay [2] it was 200 to 500 nM; in assay [3], 1500 to 5000 nM.
In the case of `C=CC(=O)N1C[C@H]2C[C@@H]1C[C@@H]2c1ccn2ncnc(Nc3ccc(Oc4ccn5ncnc5c4)c(C)c3)c12` [Example 141, 1-[(1S,4S,5S)-5-{4-[(3-methyl-4-{[1,2,4]triazolo[1,5-a]pyridin-7-yloxy}phenyl)amino]pyrrolo[2,1-f][1,2,4]triazin-5-yl}-2-azabicyclo[2.2.1]heptan-2-yl]prop-2-en-1-one], the GI50 in assay [1] was in the range of 500 to 1500 nM; in assay [2], 200 to 500 nM; in assay [3] it was 1500 to 5000 nM.
With `Cc1cc(Nc2ncnn3ccc(C4CCN(C(=O)/C=C/C(=O)O)CC4)c23)ccc1Oc1ccn2ncnc2c1` [Example 142, (E)-4-(4-(4-((4-([1,2,4]triazolo[1,5-a]pyridin-7-yloxy)-3-methylphenyl)amino)pyrrolo[2,1-f][1,2,4]triazin-5-yl)piperidin-1-yl)-4-oxobut-2-enoic acid], the GI50 in assay [1], in assay [2] and in assay [3] was 1500 to 5000 nM each time.
As to `Cc1cc(Nc2ncnn3ccc(C4CCN(C(=O)/C=C/CN)CC4)c23)ccc1Oc1ccn2ncnc2c1` [Example 150, (E)-1-(4-(4-((4-([1,2,4]triazolo[1,5-a]pyridin-7-yloxy)-3-methylphenyl)amino)pyrrolo[2,1-f][1,2,4]triazin-5-yl)piperidin-1-yl)-4-aminobut-2-en-1-one], the GI50 lay in the range of 1500 to 5000 nM in assay [1], 500 to 1500 nM in assay [2] and 1500 to 5000 nM in assay [3].
Turning to `CNC/C=C/C(=O)N1CC(c2ccn3ncnc(Nc4ccc(Oc5ccn6ncnc6c5)c(C)c4)c23)C1` [Example 151, (E)-1-(3-(4-((4-([1,2,4]triazolo[1,5-a]pyridin-7-yloxy)-3-methylphenyl)amino)pyrrolo[2,1-f][1,2,4]triazin-5-yl)azetidin-1-yl)-4-(methylamino)but-2-en-1-one], the GI50 was below 200 nM in assay [1], below 200 nM in assay [2] and 1500 to 5000 nM in assay [3].
Turning to `Cc1cc(Nc2ncnn3cc(F)c(C4CCN(C(=O)/C=C/CN(C)C)CC4)c23)ccc1Oc1ccn2ncnc2c1` [Example 152, (E)-1-(4-(4-((4-([1,2,4]triazolo[1,5-a]pyridin-7-yloxy)-3-methylphenyl)amino)-6-fluoropyrrolo[2,1-f][1,2,4]triazin-5-yl)piperidin-1-yl)-4-(dimethylamino)but-2-en-1-one], the GI50 is below 200 nM in assay [1], below 200 nM in assay [2] and 1500 to 5000 nM in assay [3].
Regarding `CNC/C=C/C(=O)N1CC(c2ccn3ncnc(Nc4ccc(Oc5ccc6c(c5)ncn6C)c(C)c4)c23)C1` [Example 153, (E)-1-(3-(4-((3-methyl-4-((1-methyl-1H-benzo[d]imidazol-5-yl)oxy)phenyl)amino)pyrrolo[2,1-f][1,2,4]triazin-5-yl)azetidin-1-yl)-4-(methylamino)but-2-en-1-one], the GI50 in assay [1], in assay [2] and in assay [3] was 1500 to 5000 nM in each case.
Take `Cc1cc(Nc2ncnn3ccc(C4CCN(C(=O)/C=C/CO)CC4)c23)ccc1Oc1ccn2ncnc2c1` [Example 154, (E)-1-(4-(4-((4-([1,2,4]triazolo[1,5-a]pyridin-7-yloxy)-3-methylphenyl)amino)pyrrolo[2,1-f][1,2,4]triazin-5-yl)piperidin-1-yl)-4-hydroxybut-2-en-1-one]: the values for the GI50 in assay [1], in assay [2] and in assay [3] were below 200 nM, below 200 nM and 1500 to 5000 nM, respectively.
As for `Cc1cc(Nc2ncnn3ccc(C4CN(C(=O)/C=C/CN(C)C)C4)c23)ccc1Oc1ccn2ccnc2c1` [Example 157, (E)-4-(dimethylamino)-1-(3-(4-((4-(imidazo[1,2-a]pyridin-7-yloxy)-3-methylphenyl)amino)pyrrolo[2,1-f][1,2,4]triazin-5-yl)azetidin-1-yl)but-2-en-1-one], the GI50 in assay [1] is below 200 nM; in assay [2], below 200 nM; in assay [3], 1500 to 5000 nM.
With `Cc1cc(Nc2ncnn3ccc(C4CN(C(=O)/C=C/CN(C)C)C4)c23)ccc1Oc1cc2ncnn2cn1` [Example 158, (E)-1-(3-(4-((4-([1,2,4]triazolo[1,5-c]pyrimidin-7-yloxy)-3-methylphenyl)amino)pyrrolo[2,1-f][1,2,4]triazin-5-yl)azetidin-1-yl)-4-(dimethylamino)but-2-en-1-one], the GI50 is below 200 nM in assay [1], below 200 nM in assay [2] and 500 to 1500 nM in assay [3].
`Cc1cc(Nc2ncnn3ccc(C4CN(C(=O)/C=C/C56CCCN5CCC6)C4)c23)ccc1Oc1ccn2ncnc2c1` [Example 159, (E)-1-(3-(4-((4-([1,2,4]triazolo[1,5-a]pyridin-7-yloxy)-3-methylphenyl)amino)pyrrolo[2,1-f][1,2,4]triazin-5-yl)azetidin-1-yl)-3-(tetrahydro-1H-pyrrolizin-7a(5H)-yl)prop-2-en-1-one]: the GI50 in assay [1] was below 200 nM; in assay [2] it was below 200 nM; in assay [3], 1500 to 5000 nM.
Consider `Cc1cc(Nc2ncnn3ccc(C4CN(C(=O)/C=C\C56CCCN5CCC6)C4)c23)ccc1Oc1ccn2ncnc2c1` [Example 160, (Z)-1-(3-(4-((4-([1,2,4]triazolo[1,5-a]pyridin-7-yloxy)-3-methylphenyl)amino)pyrrolo[2,1-f][1,2,4]triazin-5-yl)azetidin-1-yl)-3-(tetrahydro-1H-pyrrolizin-7a(5H)-yl)prop-2-en-1-one], for which the GI50 was below 200 nM in assay [1], below 200 nM in assay [2] and 1500 to 5000 nM in assay [3].
For the compound `Cc1cc(Nc2ncnn3ccc(C4CN(C(=O)/C=C/CN5CC(F)C5)C4)c23)ccc1Oc1ccc2c(c1)ncn2C` [Example 161, (E)-4-(3-fluoroazetidin-1-yl)-1-(3-(4-((3-methyl-4-((1-methyl-1H-benzo[d]imidazol-5-yl)oxy)phenyl)amino)pyrrolo[2,1-f][1,2,4]triazin-5-yl)azetidin-1-yl)but-2-en-1-one], the results for the GI50 in assay [1], in assay [2] and in assay [3] were below 200 nM, below 200 nM and 1500 to 5000 nM, respectively.
`Cc1cc(Nc2ncnn3ccc(C4CCN(C(=O)/C=C/CN5CC(F)C5)CC4)c23)ccc1Oc1ccc2c(c1)ncn2C` [Example 162, (E)-4-(3-fluoroazetidin-1-yl)-1-(4-(4-((3-methyl-4-((1-methyl-1H-benzo[d]imidazol-5-yl)oxy)phenyl)amino)pyrrolo[2,1-f][1,2,4]triazin-5-yl)piperidin-1-yl)but-2-en-1-one]: the values for the GI50 in assay [1], in assay [2] and in assay [3] were 500 to 1500 nM, 200 to 500 nM and 1500 to 5000 nM, respectively.
For `Cc1cc(Nc2ncnn3ccc(C4CCN(C(=O)/C=C/CN5CC(F)C5)CC4)c23)ccc1Oc1ccn2ncnc2c1` [Example 163, (E)-1-(4-(4-((4-([1,2,4]triazolo[1,5-a]pyridin-7-yloxy)-3-methylphenyl)amino)pyrrolo[2,1-f][1,2,4]triazin-5-yl)piperidin-1-yl)-4-(3-fluoroazetidin-1-yl)but-2-en-1-one], the GI50 in assay [1] is below 200 nM; in assay [2] it was below 200 nM; in assay [3] it was 1500 to 5000 nM.
With `Cc1cc(Nc2ncnn3ccc(C4CCN(C(=O)/C=C/CN5CCC(F)C5)CC4)c23)ccc1Oc1ccn2ncnc2c1` (stereo not drawn) [Example 164, (E)-1-(4-(4-((4-([1,2,4]triazolo[1,5-a]pyridin-7-yloxy)-3-methylphenyl)amino)pyrrolo[2,1-f][1,2,4]triazin-5-yl)piperidin-1-yl)-4-(3-fluoropyrrolidin-1-yl)but-2-en-1-one], the results for the GI50 in assay [1], in assay [2] and in assay [3] were below 200 nM, below 200 nM and 1500 to 5000 nM, respectively.
Regarding `CO[C@H]1CN(C/C=C/C(=O)N2CC(c3ccn4ncnc(Nc5ccc(Oc6ccc7c(c6)ncn7C)c(C)c5)c34)C2)C[C@H]1OC` [Example 165, (E)-4-((3R,4S)-3,4-dimethoxypyrrolidin-1-yl)-1-(3-(4-((3-methyl-4-((1-methyl-1H-benzo[d]imidazol-5-yl)oxy)phenyl)amino)pyrrolo[2,1-f][1,2,4]triazin-5-yl)azetidin-1-yl)but-2-en-1-one], the GI50 in assay [1] is below 200 nM; in assay [2], below 200 nM; in assay [3] it was 1500 to 5000 nM.
